US4820694A, “Modifications of 3-O-demethylmycinose in macrocin and lactenocin” (priority 1986, dated 1989)
≈ marks a conversion by molar mass, not a printed value. Where two headings read alike, the source gives them in different places.

Legend:
Streptococcus sp. 19F = assay: broth-dilution microtiter MIC test; type: cell-based; conditions: Streptococcus, SP.19F
Method: (§1) The MIC's in Table III were determined by standard agar-dilution assays. The MIC's in Table IV were obtained using conventional brothdilution microtiter tests.

[1] = tested on: Pasteurella hemolytica 22C; assay: broth-dilution microtiter MIC test; type: cell-based; conditions: Pasteurella, 22C; broth-dilution microtiter; read-out: MIC
Method: as §1

Mycoplasma hyorhinis 29E = assay: broth-dilution microtiter MIC test; type: cell-based; conditions: Mycoplasma, 29E
Method: as §1

[2] = tested on: Pasteurella multocida 60A; assay: broth-dilution microtiter MIC test; type: cell-based; conditions: Pasteurella multocida, 60A; broth-dilution microtiter; Avian isolate; read-out: MIC
Method: as §1

[3] = tested on: Pasteurella multocida 40G; assay: broth-dilution microtiter MIC test; type: cell-based; conditions: Pasteurella multocida, 40G; broth-dilution microtiter; read-out: MIC
Method: as §1

[4] = tested on: Pasteurella multocida 22A; assay: broth-dilution microtiter MIC test; type: cell-based; conditions: Pasteurella multocida, 22A; broth-dilution microtiter; read-out: MIC
Method: as §1

[5] = tested on: Mycoplasma gallisepticum 29C; assay: broth-dilution microtiter MIC test; type: cell-based; conditions: Mycoplasmoides gallisepticum, 29C
Method: as §1

[6] = tested on: Pasteurella multocida 68C; assay: broth-dilution microtiter MIC test; type: cell-based; conditions: Pasteurella multocida, 68C
Method: as §1

[7] = tested on: Pasteurella hemolytica 41D; assay: broth-dilution microtiter MIC test; type: cell-based; conditions: Pasteurella, 41D; broth-dilution microtiter; read-out: MIC
Method: as §1

[8] = tested on: Pasteurella hemolytica 23C; assay: broth-dilution microtiter MIC test; type: cell-based; conditions: Pasteurella, 23C; broth-dilution microtiter; read-out: MIC
Method: as §1

[9] = tested on: Mycoplasma gallisepticum 36H; assay: broth-dilution microtiter MIC test; type: cell-based; conditions: Mycoplasmoides gallisepticum, 36H
Method: as §1

[10] = tested on: Bordetella bronchiseptica; assay: broth-dilution microtiter MIC test; type: cell-based; conditions: Bordetella bronchiseptica; broth-dilution microtiter; read-out: MIC
Method: as §1

Mycoplasma synoviae 40A = assay: broth-dilution microtiter MIC test; type: cell-based; conditions: Mycoplasmopsis synoviae, 40A
Method: as §1

[11] = tested on: Mycoplasma gallisepticum 15E; assay: broth-dilution microtiter MIC test; type: cell-based; conditions: Mycoplasmoides gallisepticum, 15E
Method: as §1

[12] = tested on: Pasteurella multocida 17E; assay: broth-dilution microtiter MIC test; type: cell-based; conditions: Pasteurella multocida, 17E
Method: as §1

[13] = tested on: Staphylococcus aureus 19C; assay: broth-dilution microtiter MIC test; type: cell-based; conditions: Staphylococcus aureus, 19C
Method: as §1

[14] = tested on: Streptococcus pneumoniae Park I; assay: microbe, parasite or virus in culture; type: cell-based; conditions: Streptococcus pneumoniae
Method: as §1

[15] = tested on: Staphylococcus aureus S13E; assay: microbe, parasite or virus in culture; type: cell-based; conditions: Staphylococcus aureus, S13E
Method: as §1

[16] = tested on: Streptococcus pyogenes C203; assay: protection of mice experimentally infected with S. pyogenes C203; type: in vivo; conditions: mice, mg/kg × 2, doses given 1 and 4 hours postinfection, read-out: ED50
Method: The formula 1 compounds have shown in vivo antimicrobial activity against experimentally-induced infections in laboratory animals. When two doses of test compound were administered to mice experimentally infected with S. pyrogenes C203, the activity observed was measured as an ED50 value [effective dose in mg/kg to protect 50% of the test animals: see Warren Wick, et al., J. Bacteriol. 81, 233-235 (1961)].
^a mg/kg × 2; doses given 1 and 4 hours postinfection

[17] = tested on: Staphylococcus aureus X400; assay: standard agar-dilution MIC assay; type: cell-based; conditions: Staphylococcus aureus, X400
Method: as §1

[18] = tested on: Staphylococcus epidermidis EPI1; assay: standard agar-dilution MIC assay; type: cell-based; conditions: Staphylococcus epidermidis, EPI1
Method: as §1

[19] = tested on: Staphylococcus epidermidis EP12; assay: standard agar-dilution MIC assay; type: cell-based
Method: as §1

[20] = tested on: Pseudomonas aeruginosa X239; assay: standard agar-dilution MIC assay; type: cell-based; conditions: Pseudomonas aeruginosa, X239; agar-dilution; read-out: MIC
Method: as §1

[21] = tested on: Streptococcus Group D X66; assay: standard agar-dilution MIC assay; type: cell-based; conditions: read-out: MIC
Method: as §1

[22] = tested on: Streptococcus Group D 9960; assay: standard agar-dilution MIC assay; type: cell-based; conditions: GROUPD9960, read-out: MIC
Method: as §1

[23] = tested on: Streptococcus pyogenes C203; assay: standard agar-dilution MIC assay; type: cell-based; conditions: Streptococcus pyogenes, C203
Method: as §1

[24] = tested on: Klebsiella pneumoniae X68; assay: standard agar-dilution MIC assay; type: cell-based; conditions: Klebsiella pneumoniae, X68; agar-dilution; read-out: MIC
Method: as §1

[25] = tested on: Staphylococcus aureus V41; assay: standard agar-dilution MIC assay; type: cell-based; conditions: Staphylococcus aureus, V41
Method: as §1

[26] = tested on: Staphylococcus aureus X1.1; assay: standard agar-dilution MIC assay; type: cell-based; conditions: Staphylococcus aureus, X1.1
Method: as §1

Escherichia coli EC14 = assay: standard agar-dilution MIC assay; type: cell-based; conditions: agar-dilution, read-out: MIC
Method: as §1

[27] = tested on: Haemophilus influenzae C.L.; assay: standard agar-dilution MIC assay; type: cell-based; conditions: Haemophilus influenzae; agar-dilution; Ampicillin-sensitive strain; read-out: MIC
Method: as §1

[28] = tested on: Haemophilus influenzae 76; assay: standard agar-dilution MIC assay; type: cell-based; conditions: Haemophilus influenzae, 76; agar-dilution; Ampicillin-resistant strain; read-out: MIC
Method: as §1

Structure (SMILES) | MIC (Streptococcus sp. 19F) | MIC [1] | MIC (Mycoplasma hyorhinis 29E) | MIC [2] | MIC [3] | MIC [4] | MIC [5] | MIC [7] | MIC [8] | MIC [9] | MIC [10] | MIC (Mycoplasma synoviae 40A) | MIC [11] | MIC [13] | MIC [14] | MIC [15] | MIC [17] | MIC [18] | MIC [19] | MIC [20] | other results
CCC1OC(=O)CC(O)C(C)C(OC2OC(C)C(OC3CC(C)(O)C(O)C(C)O3)C(N(C)C)C2OC(C)=O)C(CC=O)CC(C)C(=O)C=CC(C)=CC1COC1OC(C)C(OC(=O)COc2ccccc2)C(O)C1OC (centres unmarked) [Compound 13, 2'-O-Acetyl-4'"-O-phenoxyacetyl-macrocin] | 1.56 µg/mL (≈ 1.45 µM) | > 50 µg/mL | 3.12 µg/mL (≈ 2.89 µM) | > 50 µg/mL | > 50 µg/mL | > 50 µg/mL | 0.39 µg/mL (≈ 0.362 µM) | > 50 µg/mL | > 50 µg/mL | 12.5 µg/mL (≈ 11.6 µM) | > 50 µg/mL | 0.39 µg/mL (≈ 0.362 µM) | 12.5 µg/mL (≈ 11.6 µM) | 3.12 µg/mL (≈ 2.89 µM) | 0.25 µg/mL (≈ 0.232 µM) | 2 µg/mL (≈ 1.85 µM) | 2 µg/mL (≈ 1.85 µM) | 1 µg/mL (≈ 0.927 µM) | 2 µg/mL (≈ 1.85 µM) | > 128 µg/mL | MIC [6]: 50 µg/mL (≈ 46.4 µM); MIC [12]: 50 µg/mL (≈ 46.4 µM); ED50 ([16]; C203, Oral): > 100 mg/kg; ED50 ([16]; C203, sc, Subcutaneous): 7.2 mg/kg; MIC [21]: 1 µg/mL (≈ 0.927 µM); MIC [22]: 1 µg/mL (≈ 0.927 µM); MIC [23]: 1 µg/mL (≈ 0.927 µM); MIC [24]: > 128 µg/mL; MIC [25]: 1 µg/mL (≈ 0.927 µM); MIC [26]: 1 µg/mL (≈ 0.927 µM); MIC (Escherichia coli EC14): > 128 µg/mL
CCC1OC(=O)CC(O)C(C)C(OC2OC(C)C(OC3CC(C)(O)C(O)C(C)O3)C(N(C)C)C2OC(C)=O)C(CC=O)CC(C)C(=O)C=CC(C)=CC1COC1OC(C)C(OC(C)=O)C(OC(=O)COc2ccccc2)C1OC (centres unmarked) [Compound 19, 2',4'"-Di-O-acetyl-3'"-O-phenoxyacetyl-macrocin] | 1.56 µg/mL (≈ 1.39 µM) | > 50 µg/mL | 3.12 µg/mL (≈ 2.78 µM) | > 50 µg/mL | > 50 µg/mL | > 50 µg/mL | 0.78 µg/mL (≈ 0.696 µM) | > 50 µg/mL | > 50 µg/mL | 50 µg/mL (≈ 44.6 µM) | > 50 µg/mL | 0.78 µg/mL (≈ 0.696 µM) | 25 µg/mL (≈ 22.3 µM) | 6.25 µg/mL (≈ 5.58 µM) | 0.25 µg/mL (≈ 0.223 µM) | 1 µg/mL (≈ 0.893 µM) | 2 µg/mL (≈ 1.79 µM) | 1 µg/mL (≈ 0.893 µM) | 1 µg/mL (≈ 0.893 µM) | > 128 µg/mL | MIC ([6]; broth-dilution microtiter, read-out: MIC): > 50 µg/mL; MIC ([12]; broth-dilution microtiter, Bovine isolate, read-out: MIC): > 50 µg/mL; MIC [21]: 2 µg/mL (≈ 1.79 µM); MIC [22]: 2 µg/mL (≈ 1.79 µM); MIC [27]: > 128 µg/mL; MIC [23]: 0.5 µg/mL (≈ 0.446 µM); MIC [28]: > 128 µg/mL; MIC [24]: > 128 µg/mL; MIC [25]: 1 µg/mL (≈ 0.893 µM); MIC [26]: 1 µg/mL (≈ 0.893 µM); MIC (Escherichia coli EC14): > 128 µg/mL
